One assay addresses T1, human P-Selectin protein (Homo sapiens, UniProt P16109).
T1 sequence (P16109 42-830): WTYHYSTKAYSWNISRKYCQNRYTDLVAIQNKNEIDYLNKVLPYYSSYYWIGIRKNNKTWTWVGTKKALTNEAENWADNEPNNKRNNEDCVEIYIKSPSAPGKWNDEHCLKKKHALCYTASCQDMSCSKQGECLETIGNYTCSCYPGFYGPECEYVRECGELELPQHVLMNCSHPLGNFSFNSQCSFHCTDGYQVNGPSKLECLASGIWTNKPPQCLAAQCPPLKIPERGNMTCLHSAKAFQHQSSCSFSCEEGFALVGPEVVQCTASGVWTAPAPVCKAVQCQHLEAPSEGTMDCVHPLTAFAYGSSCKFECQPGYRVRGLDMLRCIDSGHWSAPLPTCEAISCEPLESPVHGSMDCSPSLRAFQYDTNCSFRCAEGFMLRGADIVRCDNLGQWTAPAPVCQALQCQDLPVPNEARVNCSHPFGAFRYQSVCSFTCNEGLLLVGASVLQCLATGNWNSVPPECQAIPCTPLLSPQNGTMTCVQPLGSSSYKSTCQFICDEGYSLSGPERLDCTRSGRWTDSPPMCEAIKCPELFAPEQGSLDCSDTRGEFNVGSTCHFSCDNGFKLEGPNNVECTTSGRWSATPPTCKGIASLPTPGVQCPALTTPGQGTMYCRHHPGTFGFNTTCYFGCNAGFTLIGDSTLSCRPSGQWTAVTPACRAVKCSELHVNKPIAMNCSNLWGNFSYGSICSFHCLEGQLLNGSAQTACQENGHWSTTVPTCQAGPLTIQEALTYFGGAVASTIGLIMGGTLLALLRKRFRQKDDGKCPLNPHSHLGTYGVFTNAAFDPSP
Put plainly: SPR binding assay (Biacore). Particulars: Affinity KD determined by SPR, recombinant biotinylated human P-Selectin, 25° C. A digest of the protocol:
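Biotinylated recombinant human P-Selectin was captured on a streptavidin chip (1000-1500 RU), and monomeric peptides were injected in PBS/0.05% Tween 20 with 0.5% DMSO at 25 °C (top 200 nM–50 μM, 2- or 3-fold series). Double-referenced data were fitted to a kinetic model with mass transport to give ka, kd and KD.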

The target of assay [1] is T2, P-Selectin:PSGL1 interaction (Homo sapiens, UniProt P16109).
T2 construct: host or cells: HL-60 cells (ATCC, CCL-240) supply the PSGL-1 partner endogenously
T2 sequence (P16109 42-771 limits assumed): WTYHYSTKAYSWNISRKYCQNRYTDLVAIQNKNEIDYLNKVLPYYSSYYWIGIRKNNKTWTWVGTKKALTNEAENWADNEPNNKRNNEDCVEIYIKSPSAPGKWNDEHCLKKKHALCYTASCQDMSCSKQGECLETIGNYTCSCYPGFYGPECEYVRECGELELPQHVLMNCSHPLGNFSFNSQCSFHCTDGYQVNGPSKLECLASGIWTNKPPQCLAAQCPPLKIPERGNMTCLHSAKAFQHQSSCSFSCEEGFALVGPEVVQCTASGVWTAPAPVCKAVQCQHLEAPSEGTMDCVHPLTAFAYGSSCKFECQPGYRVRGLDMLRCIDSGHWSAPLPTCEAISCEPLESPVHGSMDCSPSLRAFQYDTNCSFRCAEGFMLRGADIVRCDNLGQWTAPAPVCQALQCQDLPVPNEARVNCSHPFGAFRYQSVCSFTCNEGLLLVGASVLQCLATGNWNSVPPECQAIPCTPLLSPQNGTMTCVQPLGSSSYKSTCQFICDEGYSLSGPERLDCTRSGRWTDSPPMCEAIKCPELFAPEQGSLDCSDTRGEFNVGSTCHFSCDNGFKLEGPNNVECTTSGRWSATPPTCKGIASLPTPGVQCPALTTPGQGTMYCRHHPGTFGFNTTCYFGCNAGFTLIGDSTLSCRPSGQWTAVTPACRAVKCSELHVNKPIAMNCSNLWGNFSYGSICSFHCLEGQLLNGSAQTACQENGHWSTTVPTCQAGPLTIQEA
Briefly: Receptor ligand inhibition assay (P-Selectin binding to HL-60 cells). The class given is cell-based. To be noted: geomean of n=3; for pIC50: 5 nM P-Selectin, HL-60 cells, read-out: IC50; for Inhibition at top concentration: 100−% response at top concentration. How it is done:
Bicycle test samples, SelG1 (Crizanlizumab) were serially diluted maintaining 0.5% DMSO in assay buffer (25 mM HEPES, 121 mM NaCl, 5.4 mM KCl, 0.8 mM MgCl2, 1.8 mM CaCl2), 6 mM […], 5.5 mM glucose, 1% BSA, pH7.4) and transferred to 384 well clear bottom plates (Corning, 3712) with a final volume of 6 μL. […], of P-Selectin in imaging buffer (25 mM HEPES, 121 mM NaCl, 5.4 mM KCl, 0.8 mM MgCl2, 1.8 mM CaCl2), 6 mM […], 5.5 mM glucose, pH7.4) was added to give a 5 nM final concentration and incubated at room temperature for 15 minutes. HL-60 cells (ATCC, CCL-240) mixed with 1 μg/mL far red labelled wheat germ agglutinin (WGA, ThermoFisher W21404) and 1 μg/mL AlexaFluor 488-streptavidin (Invitrogen S11223) were added to the plate and incubated for 2 hours at room temperature in the absence of light. Staining and antibody binding were quantified by simultaneously scanning the microplates with 488 nm and 640 nm lasers on a mirrorball microplate cytometer, AF488 on FL2 triggering on AF647-WGA on FL4. Data was analysed in Dotmatics, using a four parameter logistic fit to generate IC50 values and % response. Percent inhibition was calculated using 100−% response at top concentration.

Two compounds from patent US12150998B2, “Bicyclic peptide ligands specific for P-selectin” (BicycleTx Limited, priority 2021, dated 2024) can be followed below.

pIC50, pKd: −log10 of the molar value. Starred links: 1 amine or outer side, 2 acyl side, 3 side chain; linkers in the order of their positions; H or OH if unused. Positions of bridges follow the written chain, without caps; N, C: chain ends. Non-standard residues stand in square brackets, D forms with d. Residues, ends and D or L forms follow the SMILES beside them. Chains are numbered I, II in the order given. X2 = O=C(CCCC(=O)NCCOCCOCCOCCOCCOCCOCCOCCOCCOCCOCCOCCOCCOCCOCCOCCOCCOCCOCCOCCOCCOCCOCCOCCn1cc(CCC(=O)[*:2])nn1)NCCOCCOCCOCCOCCOCCOCCOCCOCCOCCOCCOCCOCCOCCOCCOCCOCCOCCOCCOCCOCCOCCOCCOCCn1cc(CCC(=O)[*:1])nn1; X1 = O=C(C[*:1])N1CCN(C(=O)C[*:2])CCN(C(=O)C[*:3])CC1; 1Nal = N[C@@H](Cc1cccc2ccccc12)C(=O)O

One may read the pKd as −log10 of the Kd, conventionally taken in molar units. Usually pIC50 stands for the negative decadic logarithm of the IC50, by convention in mol/L. One may read the Inhibition as the change of the read-out against control, counted positive when it falls. A lower Inhibition goes with little suppression. As for `CC(C)C[C@@H]1NC(=O)[C@H](CO)NC(=O)[C@@H]2CCCN2C(=O)[C@H](C(C)C)NC(=O)[C@H](CC(=O)O)NC(=O)[C@@H]2CSCC(=O)N3CCN(CCN(CC3)C(=O)CSC[C@@H](C(=O)N[C@@H](C)C(=O)N[C@@H](CCCCNC(=O)CCc3cn(CCOCCOCCOCCOCCOCCOCCOCCOCCOCCOCCOCCOCCOCCOCCOCCOCCOCCOCCOCCOCCOCCOCCOCCNC(=O)CCCC(=O)NCCOCCOCCOCCOCCOCCOCCOCCOCCOCCOCCOCCOCCOCCOCCOCCOCCOCCOCCOCCOCCOCCOCCOCCn4cc(CCC(=O)NCCCC[C@H](NC(=O)[C@H](C)NC(=O)[C@@H]5CSCC(=O)N6CCN7CCN(CC6)C(=O)CSC[C@H](NC(=O)[C@H](Cc6c[nH]c8ccccc68)NC(=O)[C@H](CC(=O)O)NC(=O)[C@H](C)NC(=O)[C@H](CC(=O)O)NC(=O)[C@@H](NC(=O)[C@H](C)N)CSCC7=O)C(=O)N[C@@H](CC(=O)O)C(=O)N[C@@H](C(C)C)C(=O)N6CCC[C@H]6C(=O)N[C@@H](CO)C(=O)N[C@@H](CC(C)C)C(=O)N6CCC[C@H]6C(=O)N5)C(N)=O)nn4)nn3)C(N)=O)NC(=O)[C@@H]3CCCN3C1=O)C(=O)CSC[C@H](NC(=O)[C@H](C)N)C(=O)N[C@@H](CC(=O)O)C(=O)N[C@@H](C)C(=O)N[C@@H](CC(=O)O)C(=O)N[C@@H](Cc1c[nH]c3ccccc13)C(=O)N2` [BCY12257] (I: H-ACDADWCDVPSLPCAK-NH2 / II: H-ACDADWCDVPSLPCAK-NH2; linker I:2-I:7-I:14, II:2-II:7-II:14 via X1; linker I:16-II:16 via X2), the pKd at human P-Selectin protein is 7.94. Moreover, in assay [1], the negative-log IC50 (pIC50) was below 7.11 and the “Inhibition at top concentration” value is on record as 54%.

With `CC(C)C[C@@H]1NC(=O)[C@H](CO)NC(=O)[C@@H]2CCCN2C(=O)[C@H](C(C)C)NC(=O)[C@H](CC(=O)O)NC(=O)[C@@H]2CSCC(=O)N3CCN(CCN(CC3)C(=O)CSC[C@@H](C(=O)N[C@@H](C)C(=O)N[C@@H](CCCCNC(=O)CCc3cn(CCOCCOCCOCCOCCOCCOCCOCCOCCOCCOCCOCCOCCOCCOCCOCCOCCOCCOCCOCCOCCOCCOCCOCCNC(=O)CCCC(=O)NCCOCCOCCOCCOCCOCCOCCOCCOCCOCCOCCOCCOCCOCCOCCOCCOCCOCCOCCOCCOCCOCCOCCOCCn4cc(CCC(=O)NCCCC[C@H](NC(=O)[C@H](C)NC(=O)[C@@H]5CSCC(=O)N6CCN7CCN(CC6)C(=O)CSC[C@H](NC(=O)[C@H](Cc6cccc8ccccc68)NC(=O)[C@H](CC(=O)O)NC(=O)[C@H](C)NC(=O)[C@H](CC(=O)O)NC(=O)[C@@H](NC(=O)[C@H](C)N)CSCC7=O)C(=O)N[C@@H](CC(=O)O)C(=O)N[C@@H](C(C)C)C(=O)N6CCC[C@H]6C(=O)N[C@@H](CO)C(=O)N[C@@H](CC(C)C)C(=O)N6CCC[C@H]6C(=O)N5)C(N)=O)nn4)nn3)C(N)=O)NC(=O)[C@@H]3CCCN3C1=O)C(=O)CSC[C@H](NC(=O)[C@H](C)N)C(=O)N[C@@H](CC(=O)O)C(=O)N[C@@H](C)C(=O)N[C@@H](CC(=O)O)C(=O)N[C@@H](Cc1cccc3ccccc13)C(=O)N2` [BCY12258] (I: H-ACDAD[1Nal]CDVPSLPCAK-NH2 / II: H-ACDAD[1Nal]CDVPSLPCAK-NH2; linker I:2-I:7-I:14, II:2-II:7-II:14 via X1; linker I:16-II:16 via X2), the negative-log Kd (pKd) on human P-Selectin protein was 9.39. For the same compound, in assay [1], the negative-log IC50 (pIC50) was below 7.01 and the “Inhibition at top concentration” value is 57%.
